From patent US11786534B2 (TAIHO PHARMACEUTICAL CO., LTD., priority 2019, dated 2023)
Like-named read-outs stand apart in the source and are kept apart here.

What was measured:
[1] = biological target: T1, human EGFR (d746-750/T790M/C797S) (Homo sapiens, UniProt P00533, C797S/DEL746-750/T790M); test: Inhibitory activity against EGFR (d746-750/T790M/C797S) kinase; type: biochemical
T1 construct: made in house; host or cells: Sf9 insect cells, baculovirus
Method in brief: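 GST-fused cytoplasmic domain of human EGFR d746-750/T790M/C797S (Sf9-expressed) was incubated with 250 nM biotinylated peptide, 6 μM ATP, 10 mM MgCl2 and 10 mM MnCl2 (2.5% DMSO) for 120 min at 25 °C. After an EDTA stop, phosphotyrosine was detected by Eu-PT66/SureLight APC-SA TR-FRET (665/620 nm, excitation 337 nm). Background wells received EDTA before enzyme.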

Ba/F3-EGFR (WT) = Ba/F3-EGFR (WT) (Homo sapiens, UniProt P00533); test: Growth inhibition of cell line expressing wild-type EGFR; type: cell-based, mouse; conditions: read-out: BaF3_EGFR (WT) IC50 value
Description: Test for inhibitory activity against the growth of cell lines expressing wild-type and mutated EGFRs (in vitro)
(1) Mouse cell line Ba/F3-EGFR (d746-750/T790M/C797S) transfected with and stably expressing EGFR (d746-750/T790M/C797S), mouse cell Ba/F3-EGFR (L858R/T790M/C797S) transfected with and stably expressing EGFR (L858R/T790M/C797S), and mouse cell line Ba/F3-EGFR (WT) transfected with and stably expressing wild-type EGFR were each suspended in RPMI-1640 cell culture medium (RPMI-1640, 10% FBS, 100 unit/ml penicillin, 0.1 mg/ml streptomycin). In the case of the mouse cell line Ba/F3-EGFR (WT), RPMI-1640 cell culture medium containing EGF at a final concentration of 50 ng/ml was used to suspend this cell line. It should be noted that the mouse cell line Ba/F3-EGFR (d746-750/T790M/C797S) transfected with and stably expressing EGFR (d746-750/T790M/C797S), the mouse cell line Ba/F3-EGFR (L858R/T790M/C797S) transfected with and stably expressing EGFR (L858R/T790M/C797S) and the mouse cell line Ba/F3-EGFR (WT) transfected with and stably expressing wild-type EGFR were prepared by using nucleotide sequences encoding the proteins of SEQ ID NOs: 1 and 2 in accordance with Test Example 1 in WO2018/079310, These cell suspensions were seeded in wells of 96-well flat -bottomed plates. The compounds of the present invention were dissolved in DMSO, and serial dilutions of these test compounds were prepared with DMSO (1000-fold of the final concentration). Each test compound solution in DMSO or DMSO alone was diluted with RPMI-1640 cell culture medium for each cell line, and this dilution was added to wells of the cell culture plate such that the final concentration of DMSO was 0.1%, followed by culture at 37° C. for 3 days in a 5% carbon dioxide gas-containing incubator. Before and after addition of each test compound solution in DMSO, the number of cells was counted using the CellTiter-Glo® system (Promega) on the basis of the protocol recommended by Promega.
In each cell line, the rate of cell growth inhibition was calculated according to the equation shown below in wells to which each test compound was added at different concentrations. Moreover, the inhibition rate at each concentration was plotted for each test compound, and the concentration of each test compound required to give 50% cell survival rate, i.e., IC50 (nM) was determined by curve fitting software XLfit (IDBS).
Cell survival rate (%)=T/C×100
T: emission intensity in a well cultured for 3 days after addition of a test compound solution
C: emission intensity in a well cultured for 3 days after addition of DMSO
In accordance with the same procedures as shown in Test Example 2, the compounds of the present invention were tested for their inhibitory activity against the growth of the cell hoes expressing wild-type and mutated EGFRs.

[2] = Test Example 1, Table 2, ATP 6 μM, 25° C., 120 minutes
[3] = Test Example 2, Table 7, culture 3 days, EGF 50 ng/ml, CellTiter-Glo
[4] = Test Example 4, Table 13, same procedures as Test Example 2

T1 sequence (P00533 with tags, fused parts or gaps DEL746-750/T790M/C797S): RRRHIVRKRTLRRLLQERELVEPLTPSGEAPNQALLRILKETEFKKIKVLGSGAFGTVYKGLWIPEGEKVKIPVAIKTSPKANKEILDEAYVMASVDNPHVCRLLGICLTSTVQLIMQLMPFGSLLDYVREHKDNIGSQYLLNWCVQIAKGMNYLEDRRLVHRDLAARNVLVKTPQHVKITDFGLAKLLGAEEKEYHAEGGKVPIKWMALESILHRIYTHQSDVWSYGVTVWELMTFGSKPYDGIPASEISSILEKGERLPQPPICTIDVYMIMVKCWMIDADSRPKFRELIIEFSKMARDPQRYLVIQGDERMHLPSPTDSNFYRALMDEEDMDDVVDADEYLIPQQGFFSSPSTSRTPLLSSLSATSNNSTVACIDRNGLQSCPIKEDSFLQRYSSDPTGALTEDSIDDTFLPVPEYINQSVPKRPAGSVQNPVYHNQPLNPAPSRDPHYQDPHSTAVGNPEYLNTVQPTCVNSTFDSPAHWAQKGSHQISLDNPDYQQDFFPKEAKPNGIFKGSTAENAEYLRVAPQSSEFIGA
Chain of Ba/F3-EGFR (WT) (P00533 whole entry, stated change not applied): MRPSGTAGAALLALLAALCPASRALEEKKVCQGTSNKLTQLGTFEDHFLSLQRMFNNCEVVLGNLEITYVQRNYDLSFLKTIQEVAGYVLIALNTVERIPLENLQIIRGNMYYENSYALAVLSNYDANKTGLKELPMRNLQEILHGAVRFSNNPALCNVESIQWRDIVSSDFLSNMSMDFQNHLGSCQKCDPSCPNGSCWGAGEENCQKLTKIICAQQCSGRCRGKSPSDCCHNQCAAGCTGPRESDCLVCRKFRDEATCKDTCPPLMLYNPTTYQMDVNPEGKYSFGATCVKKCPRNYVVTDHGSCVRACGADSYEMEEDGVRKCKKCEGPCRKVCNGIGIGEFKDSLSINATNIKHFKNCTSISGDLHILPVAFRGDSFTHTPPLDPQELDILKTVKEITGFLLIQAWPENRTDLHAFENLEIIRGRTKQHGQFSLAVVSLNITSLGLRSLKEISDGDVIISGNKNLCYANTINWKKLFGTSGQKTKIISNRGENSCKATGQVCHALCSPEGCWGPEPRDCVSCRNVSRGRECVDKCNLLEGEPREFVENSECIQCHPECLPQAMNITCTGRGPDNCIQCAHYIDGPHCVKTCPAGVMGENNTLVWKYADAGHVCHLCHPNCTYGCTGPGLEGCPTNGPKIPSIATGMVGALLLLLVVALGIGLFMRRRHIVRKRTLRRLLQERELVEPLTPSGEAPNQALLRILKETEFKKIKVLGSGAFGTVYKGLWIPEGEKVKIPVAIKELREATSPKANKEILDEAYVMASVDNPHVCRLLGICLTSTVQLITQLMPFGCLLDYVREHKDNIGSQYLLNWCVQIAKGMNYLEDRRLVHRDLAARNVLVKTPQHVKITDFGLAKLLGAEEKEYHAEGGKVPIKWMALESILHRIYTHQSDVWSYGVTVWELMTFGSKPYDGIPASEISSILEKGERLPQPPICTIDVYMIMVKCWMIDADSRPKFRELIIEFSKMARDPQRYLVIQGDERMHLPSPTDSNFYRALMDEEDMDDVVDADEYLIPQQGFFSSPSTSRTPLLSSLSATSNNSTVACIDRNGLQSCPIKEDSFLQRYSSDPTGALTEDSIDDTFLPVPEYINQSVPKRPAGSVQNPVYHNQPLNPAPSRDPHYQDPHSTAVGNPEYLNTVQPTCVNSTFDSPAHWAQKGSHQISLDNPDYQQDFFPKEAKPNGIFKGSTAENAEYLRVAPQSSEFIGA

| IC50 [1, 2] [nM] | GI50 (Ba/F3-EGFR (WT); [3]) [nM] | GI50 (Ba/F3-EGFR (WT); [4]) [nM] | IC50 ([1]; Test Example 3, Table 8; same procedures as 1) in Test Example 1) [nM] | Structure (SMILES) |
| --- | --- | --- | --- | --- |
| < 0.3 | 2490 |  |  | C#Cc1c(-c2cnc3ccccc3c2)c2c(N)ncnc2n1C12CCC(NC(=O)c3cnccn3)(CC1)C2 [Example 48] |
| < 0.3 | 3070 |  |  | C#Cc1c(-c2cnc3ccccc3c2)c2c(N)ncnc2n1C12CCC(NC(=O)c3cccnn3)(CC1)C2 [Example 49] |
| < 0.3 |  | 3290 |  | C#Cc1c(-c2cnc3ccccc3c2)c2c(N)ncnc2n1C12CCC(NC(=O)c3nccs3)(CC1)C2 [Example 53] |
|  |  | 2990 | < 0.3 | C#Cc1c(-c2cnc3ccccc3c2)c2c(N)ncnc2n1C12CCC(NC(=O)[C@@H]3CN(C)CCO3)(CC1)C2 [Example 63, (S)-N-(4-(4-Amino-6-ethynyl-5-(quinolin-3-yl)-7H-pyrrolo[2,3-d]pyrimidin-7-yl) -bicyclo[2.2.1]heptan-1-yl)-4-methylmorpholine-2-carboxamide] |
